# Source: patent US20240299359A1, “PHARMACEUTICAL COMPOSITION FOR ANIMALS CONTAINING 5-HYDROXY-METHYLIMIDAZOLIDINE-2,4-DIONE COMPOUND AS ACTIVE INGREDIENT” (KYONGBO PHARM. CO., LTD., priority 2021, published 2024)
# Experiment: 13-week repeated oral toxicity: weight measurement
# Type: in vivo, beagle
# Settings: for Weight: in kg (unit assumed)
# Description: During the 13-week test period starting from the day before administration, the weight was measured a total of 15 times before administration (pre), before administration on the day of administration, and every week over the 13-week test period after the first administration at a predetermined time (remaining feed measurement time) before administration of the test substance (on every Tuesday during the test period).
compound,measurement,setting,value
"CN1C(=O)NC(=O)C1O (stereo not shown) [KBP-001, 5-hydroxy-1-methylimidazolidine-2,4-dione]","Weight, Mean","500 mg/kg repeated oral (G3), female, week 1, mean",9.6 kg
same,"Weight, Mean","500 mg/kg repeated oral (G3), female, week 2, mean",9.5 kg
same,"Weight, Mean","500 mg/kg repeated oral (G3), female, week 3, mean",9.6 kg
same,"Weight, Mean","500 mg/kg repeated oral (G3), female, week 4, mean",9.8 kg
same,"Weight, Mean","500 mg/kg repeated oral (G3), female, week 5, mean",9.8 kg
same,"Weight, Mean","500 mg/kg repeated oral (G3), female, week 6, mean",9.8 kg
same,"Weight, Mean","500 mg/kg repeated oral (G3), female, week 7, mean",9.8 kg
same,"Weight, Mean","500 mg/kg repeated oral (G3), female, week 8, mean",9.8 kg
same,"Weight, Mean","500 mg/kg repeated oral (G3), female, week 9, mean",9.8 kg
same,"Weight, Mean","500 mg/kg repeated oral (G3), female, week 10, mean",9.8 kg
same,"Weight, Mean","500 mg/kg repeated oral (G3), female, week 11, mean",9.9 kg
same,"Weight, Mean","500 mg/kg repeated oral (G3), female, week 12, mean",9.9 kg
same,"Weight, Mean","500 mg/kg repeated oral (G3), female, week 13, mean",10 kg
same,"Weight, Mean","500 mg/kg repeated oral (G3), female, week pre, mean",9.5 kg
same,Weight,"500 mg/kg repeated oral (G3), male, week 0, individual animals",10.0
same,"Weight, Mean","500 mg/kg repeated oral (G3), male, week 0, mean",9.9 kg
same,"Weight, Mean","500 mg/kg repeated oral (G3), male, week 1, mean",10 kg
same,"Weight, Mean","500 mg/kg repeated oral (G3), male, week 2, mean",9.9 kg
same,"Weight, Mean","500 mg/kg repeated oral (G3), male, week 3, mean",9.9 kg
same,"Weight, Mean","500 mg/kg repeated oral (G3), male, week 4, mean",10 kg
same,"Weight, Mean","500 mg/kg repeated oral (G3), male, week 5, mean",10.1 kg
same,Weight,"500 mg/kg repeated oral (G3), male, week 6, individual animals",10.1
same,"Weight, Mean","500 mg/kg repeated oral (G3), male, week 6, mean",10.1 kg
same,Weight,"500 mg/kg repeated oral (G3), male, week 7, individual animals",10.1
same,"Weight, Mean","500 mg/kg repeated oral (G3), male, week 7, mean",10.1 kg
same,Weight,"500 mg/kg repeated oral (G3), male, week 8, individual animals",10.3
same,"Weight, Mean","500 mg/kg repeated oral (G3), male, week 8, mean",10.1 kg
same,Weight,"500 mg/kg repeated oral (G3), male, week 9, individual animals",10.4
same,"Weight, Mean","500 mg/kg repeated oral (G3), male, week 9, mean",10.1 kg
same,Weight,"500 mg/kg repeated oral (G3), male, week 10, individual animals",10.4
same,"Weight, Mean","500 mg/kg repeated oral (G3), male, week 10, mean",10.2 kg
same,Weight,"500 mg/kg repeated oral (G3), male, week 11, individual animals",10.4
same,"Weight, Mean","500 mg/kg repeated oral (G3), male, week 11, mean",10.1 kg
same,Weight,"500 mg/kg repeated oral (G3), male, week 12, individual animals",10.3
same,"Weight, Mean","500 mg/kg repeated oral (G3), male, week 12, mean",10.2 kg
same,Weight,"500 mg/kg repeated oral (G3), male, week 13, individual animals",10.5
same,"Weight, Mean","500 mg/kg repeated oral (G3), male, week 13, mean",10.3 kg
same,Weight,"500 mg/kg repeated oral (G3), male, week pre, individual animals",10.1
same,"Weight, Mean","500 mg/kg repeated oral (G3), male, week pre, mean",10 kg
same,"Weight, Mean","1,000 mg/kg repeated oral (G4), female, week 0, mean",9.4 kg
same,"Weight, Mean","1,000 mg/kg repeated oral (G4), female, week 1, mean",9.4 kg
same,"Weight, Mean","1,000 mg/kg repeated oral (G4), female, week 2, mean",9.3 kg
same,"Weight, Mean","1,000 mg/kg repeated oral (G4), female, week 3, mean",9.4 kg
same,"Weight, Mean","1,000 mg/kg repeated oral (G4), female, week 4, mean",9.6 kg
same,"Weight, Mean","1,000 mg/kg repeated oral (G4), female, week 5, mean",9.5 kg
same,"Weight, Mean","1,000 mg/kg repeated oral (G4), female, week 6, mean",9.4 kg
same,"Weight, Mean","1,000 mg/kg repeated oral (G4), female, week 7, mean",9.4 kg
same,"Weight, Mean","1,000 mg/kg repeated oral (G4), female, week 8, mean",9.5 kg
same,"Weight, Mean","1,000 mg/kg repeated oral (G4), female, week 9, mean",9.7 kg
same,"Weight, Mean","1,000 mg/kg repeated oral (G4), female, week 10, mean",0.8 kg
same,"Weight, Mean","1,000 mg/kg repeated oral (G4), female, week 11, mean",9.8 kg
same,"Weight, Mean","1,000 mg/kg repeated oral (G4), female, week 12, mean",9.8 kg
same,"Weight, Mean","1,000 mg/kg repeated oral (G4), female, week 13, mean",9.8 kg
same,"Weight, Mean","1,000 mg/kg repeated oral (G4), female, week pre, mean",9.4 kg
same,"Weight, Mean","1,000 mg/kg repeated oral (G4), male, week 0, mean",10.2 kg
same,"Weight, Mean","1,000 mg/kg repeated oral (G4), male, week 1, mean",10.2 kg
same,"Weight, Mean","1,000 mg/kg repeated oral (G4), male, week 2, mean",10.1 kg
same,"Weight, Mean","1,000 mg/kg repeated oral (G4), male, week 3, mean",10 kg
same,"Weight, Mean","1,000 mg/kg repeated oral (G4), male, week 4, mean",10.2 kg
same,"Weight, Mean","1,000 mg/kg repeated oral (G4), male, week 5, mean",10.3 kg
same,"Weight, Mean","1,000 mg/kg repeated oral (G4), male, week 6, mean",10 kg
same,"Weight, Mean","1,000 mg/kg repeated oral (G4), male, week 7, mean",10.1 kg
same,"Weight, Mean","1,000 mg/kg repeated oral (G4), male, week 8, mean",10.1 kg
same,"Weight, Mean","1,000 mg/kg repeated oral (G4), male, week 9, mean",10.2 kg
same,"Weight, Mean","1,000 mg/kg repeated oral (G4), male, week 10, mean",10.2 kg
same,"Weight, Mean","1,000 mg/kg repeated oral (G4), male, week 11, mean",10.2 kg
same,"Weight, Mean","1,000 mg/kg repeated oral (G4), male, week 12, mean",10.2 kg
same,"Weight, Mean","1,000 mg/kg repeated oral (G4), male, week 13, mean",10.2 kg
same,"Weight, Mean","1,000 mg/kg repeated oral (G4), male, week pre, mean",10.2 kg
same,weight compared with control group,"repeated oral once a day for 13 weeks, male and female",no significant differences in weight from the control group was observed
